Results reported in US12624018B1, “Inhibitors of RIPK2 and medical uses thereof” (Odyssey Therapeutics, Inc., priority 2022, dated 2026).

The compounds below were run against T1, RIPK2 enzyme (Homo sapiens, UniProt O43353) (assay: RIPK2 inhibition (ADP-Glo Kinase Assay)). Settings: RIPK2 5 nM, ATP 150 μM, MBP substrate, read-out: RIPK2 IC50.
T1 construct: purchased Carna 09-128
Assay type: biochemical
Description: RIPK2 inhibition was measured as follows:
The V9102 ADP-Glo Kinase Assay (including ultrapure ATP, 10 mM) was purchased from Promega. Native swine MBP was used as the substrate for the reaction and was purchased from SignalChem Biotech (catalogue number M42-51N). Assay buffer used for the assay consisted of the following components: MgCl2 (final concentration of 10 mM), Brij-35 (0.01%), DTT (final concentration of 2 mM), BSA (0.05%), EGTA (final concentration of 1 mM), and HEPE (pH 7.5 at final concentration of 50 mM).
Method: In a 384 well plate, 10 nL of test compound was dispensed using Echo550 and mixed with RIPK2 enzyme (final concentration of 5 nM) in assay buffer for 30 minutes at room temperature. […] Then ADP-Glo reagent was added and incubated for 60 min at room temperature. Last, Kinase Detection Reagent was added to the mixture and incubated for 60 min. The resulting luminescent signal was measured with an Envision reader to determine the amount of ADP produced. All plates contained vehicle controls (10 nL DMSO only) as a reference for the high control (0% kinase inhibition), and wells with no RIPK2 enzyme as reference for low control (100% kinase inhibition). Data were analyzed to determine the percent inhibition of ADP production in the presence of test compound using both low and high controls.

T1 sequence (O43353 1-299 limits assumed): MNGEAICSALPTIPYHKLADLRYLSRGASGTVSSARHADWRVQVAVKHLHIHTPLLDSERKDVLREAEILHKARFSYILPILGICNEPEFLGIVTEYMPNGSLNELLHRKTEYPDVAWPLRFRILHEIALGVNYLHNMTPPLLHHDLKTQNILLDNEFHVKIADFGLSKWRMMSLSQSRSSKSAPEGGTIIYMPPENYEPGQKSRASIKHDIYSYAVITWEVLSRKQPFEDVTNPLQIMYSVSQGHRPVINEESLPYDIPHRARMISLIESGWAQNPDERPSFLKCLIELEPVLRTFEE

SMILES | IC50
Cc1cc(CC(=O)Nc2cnn(C(C)(C)C)c2)ccc1Oc1ccnc2ccc(P3(=O)CCCC3)cc12 [Compound 181, N-(1-(tert-butyl)-1H-pyrazol-4-yl)-2-(3-methyl-4-((6-(1-oxidophospholan-1-yl)quinolin-4-yl)oxy)phenyl) acetamide] | < 2.5 nM
Cc1cc(CC(=O)Nc2cnn(C(C)(C)C)c2)c(F)cc1Oc1ccnc2ccc(C(=O)N3C[C@@H]4C[C@H]3CO4)cc12 [Compound 454, 2-(4-((6-((1S,4S)-2-oxa-5-azabicyclo[2.2.1]heptane-5-carbonyl)quinolin-4-yl)oxy)-2-fluoro-5-methylphenyl)-N-(1-(tert-butyl)-1H-pyrazol-4-yl)acetamide] | < 2.5 nM
Cc1cc(CC(=O)Nc2cnn(C(C)(C)C)c2)c(F)cc1Oc1ncnc2cc(F)c(C(N)=O)cc12 [Compound 438, 4-(4-(2-((1-(tert-butyl)-1H-pyrazol-4-yl)amino)-2-oxoethyl)-5-fluoro-2-methylphenoxy)-7-fluoroquinazoline-6-carboxamide] | 3.5 nM
Cc1cc(CC(=O)Nc2cnn(C(C)(C)C)c2)ccc1Oc1ccnc2ccc(OC3CCNCC3C)cc12 (racemic) [Compound 187] | < 2.5 nM
CC(C)(C)c1cc(NC(=O)Cc2ncc(Oc3ncnc4ccc(F)cc34)cc2F)ncn1 [Compound 52, N-(6-(tert-butyl)pyrimidin-4-yl)-2-(3-fluoro-5-((6-fluoroquinazolin-4-yl)oxy)pyridin-2-yl)acetamide] | 54.1 nM
Cc1cc(CC(=O)Nc2cnn(C(C)(C)C)c2)c(F)cc1Oc1ccnc2ccc(S(=O)(=O)CC(C)(C)O)cc12 [Compound 415, N-(1-(tert-butyl)-1H-pyrazol-4-yl)-2-(2-fluoro-4-((6-((2-hydroxy-2-methylpropyl)sulfonyl)quinolin-4-yl)oxy)-5-methylphenyl)acetamide] | < 2.5 nM
CC(C)(C)n1cc(NC(=O)Cc2ccc(Oc3ccnc4ccc(OC5CCNCC5)cc34)c(Cl)c2)cn1 [Compound 171, N-(1-(tert-butyl)-1H-pyrazol-4-yl)-2-(3-chloro-4-((6-(piperidin-4-yloxy)quinolin-4-yl)oxy)phenyl) acetamide] | < 2.5 nM
Cc1c(Oc2ccnc3ccc(C(=O)N4CCOCC4)cc23)ccc(CC(=O)Nc2cnn(C(C)(C)C)c2)c1F [Compound 355, N-(1-(tert-butyl)-1H-pyrazol-4-yl)-2-(2-fluoro-3-methyl-4-((6-(morpholine-4-carbonyl)quinolin-4-yl)oxy)phenyl) acetamide] | < 2.5 nM
Cc1cc(CC(=O)Nc2cnn(C(C)(C)C)c2)ccc1Oc1ccnc2ccc(C(=O)N3CCCC3)cc12 [Compound 210, N-(1-(tert-butyl)-1H-pyrazol-4-yl)-2-(3-methyl-4-((6-(pyrrolidine-1-carbonyl)quinolin-4-yl)oxy)phenyl) acetamide] | < 2.5 nM
Cc1cc(CC(=O)Nc2cnn(C(C)(C)C)c2)c(F)cc1Oc1ccnc2ccc(CN3C[C@@H]4C[C@H]3CN4)cc12 [Compound 420, 2-(4-((6-(((1S,4S)-2,5-diazabicyclo[2.2.1]heptan-2-yl)methyl)quinolin-4-yl)oxy)-2-fluoro-5-methylphenyl)-N-(1-(tert-butyl)-1H-pyrazol-4-yl)acetamide] | < 2.5 nM
CN1CCC(Oc2ccc3nccc(Oc4cnc(CC(=O)Nc5cc(C(C)(C)C)[nH]n5)c(F)c4)c3c2)CC1 [Compound 134, N-(5-(tert-butyl)-1H-pyrazol-3-yl)-2-(3-fluoro-5-((6-((1-methylpiperidin-4-yl)oxy)quinolin-4-yl)oxy)pyridin-2-yl)acetamide] | < 2.5 nM
Cc1c(Oc2ccnc3ccc(S(=O)(=O)C4CCOC4)cc23)ccc(CC(=O)Nc2cnn(C(C)(C)C)c2)c1F (single isomer, unassigned) [Compound 250, N-(1-(tert-butyl)-1H-pyrazol-4-yl)-2-(2-fluoro-3-methyl-4-((6-((tetrahydrofuran-3-yl)sulfonyl)quinolin-4-yl)oxy)phenyl)acetamide] | < 2.5 nM
Cc1c(Oc2ncnc3ccc(OC4CCNCC4)cc23)ccc(CC(=O)Nc2cnn(C(C)(C)C)c2)c1F [Compound 106, N-(1-(tert-butyl)-1H-pyrazol-4-yl)-2-(2-fluoro-3-methyl-4-((6-(piperidin-4-yloxy)quinazolin-4-yl)oxy)phenyl) acetamide] | < 2.5 nM
Cc1c(Oc2ccnc3ccc(C(=O)N4CC(O)C4)cc23)ccc(CC(=O)Nc2cnn(C(C)(C)C)c2)c1F [Compound 348, N-(1-(tert-butyl)-1H-pyrazol-4-yl)-2-(2-fluoro-4-((6-(3-hydroxy-azetidine-1-carbonyl)quinolin-4-yl)oxy)-3-methyl-phenyl) acetamide] | < 2.5 nM
COc1cc2nccc(Oc3ccc(CC(=O)Nc4cnn(C(C)(C)C)c4)cc3C)c2cc1S(C)(=O)=O [Compound 216, N-(1-(tert-butyl)-1H-pyrazol-4-yl)-2-(4-((7-methoxy-6-(methylsulfonyl)quinolin-4-yl)oxy)-3-methylphenyl) acetamide] | < 2.5 nM
Cc1cc(CC(=O)Nc2cnn(C(C)(C)C)c2)ccc1Oc1ncnc2ccc(OC3CCN(CCO)CC3)cc12 [Compound 176] | 4 nM
Cc1c(Oc2ccnc3ccc(C(=O)NC4COC4)cc23)ccc(CC(=O)Nc2cnn(C(C)(C)C)c2)c1F [Compound 400, 4-(4-(2-((1-(tert-butyl)-1H-pyrazol-4-yl)amino)-2-oxoethyl)-3-fluoro-2-methyl-phenoxy)-N-(oxetan-3-yl)quinoline-6-carboxamide] | < 2.5 nM
[2H]C([2H])([2H])n1nc(NC(=O)Cc2ccc(Oc3ccnc4ccc(S(C)(=O)=O)cc34)c(C)c2)cc1C(C)(C)C [Compound 231, N-(5-(tert-butyl)-1-(methyl-d3)-1H-pyrazol-3-yl)-2-(3-methyl-4-((6-(methylsulfonyl)quinolin-4-yl)oxy)phenyl)acetamide] | < 2.5 nM
Cc1cc(CC(=O)Nc2cnn(C(C)(C)C)c2)c(F)cc1Oc1ccnc2ccc(C(=O)N3CCC(N)C3)cc12 (stereo not shown) [Compound 449, 2-(4-((6-(3-aminopyrrolidine-1-carbonyl)quinolin-4-yl)oxy)-2-fluoro-5-methylphenyl)-N-(1-(tert-butyl)-1H-pyrazol-4-yl)acetamide] | < 2.5 nM

Second part, the compound after the results:

IC50 | SMILES
< 2.5 nM | Cc1cc(CC(=O)Nc2cnn(C(C)(C)C)c2)ccc1Oc1ccnc2ccc(N3CCC(O)C3=O)cc12 (single isomer, unassigned) [Compound 326, N-(1-(tert-butyl)-1H-pyrazol-4-yl)-2-(4-((6-(3-hydroxy-2-oxopyrrolidin-1-yl)quinolin-4-yl)oxy)-3-methylphenyl) acetamide]
< 2.5 nM | CCS(=O)(=O)c1ccc2nccc(Oc3ccc(CC(=O)Nc4cnn(C(C)(C)C)c4)cc3C(F)F)c2c1 [Compound 417, N-(1-(tert-butyl)-1H-pyrazol-4-yl)-2-(3-(difluoromethyl)-4-((6-(ethylsulfonyl)quinolin-4-yl)oxy)phenyl) acetamide]
< 2.5 nM | CC(C)(C)n1cc(NC(=O)Cc2ccc(Oc3ccnc4ccc(OC5CCNCC5)cc34)c(F)c2)cn1 [Compound 161, N-(1-(tert-butyl)-1H-pyrazol-4-yl)-2-(3-fluoro-4-((6-(piperidin-4-yloxy)quinolin-4-yl)oxy)phenyl) acetamide]
< 2.5 nM | Cc1cc(CC(=O)Nc2cnn(C(C)(C)C)c2)ccc1Oc1ccnc2ccc(-c3ccc[nH]c3=O)cc12 [Compound 245, N-(1-(tert-butyl)-1H-pyrazol-4-yl)-2-(3-methyl-4-((6-(2-oxo-1,2-dihydropyridin-3-yl)quinolin-4-yl)oxy)phenyl)acetamide]
< 2.5 nM | Cc1cc(CC(=O)Nc2cnn(C(C)(C)C)c2)ccc1Oc1ccnc2ccc(OC[C@H]3CCCNC3)cc12 [Compound 195, (S)-N-(1-(tert-butyl)-1H-pyrazol-4-yl)-2-(3-methyl-4-((6-(piperidin-3-ylmethoxy)quinolin-4-yl)oxy)phenyl) acetamide]
< 2.5 nM | Cc1cc(CC(=O)Nc2cnn(C3CCCC3)c2)ccc1Oc1ccnc2ccc(S(C)(=O)=O)cc12 [Compound 214, N-(1-cyclopentyl-1H-pyrazol-4-yl)-2-(3-methyl-4-((6-(methylsulfonyl)quinolin-4-yl)oxy)phenyl)acetamide]
< 2.5 nM | CCn1nc(NC(=O)Cc2ccc(Oc3ccnc4ccc(S(C)(=O)=O)cc34)cc2F)cc1C(C)(C)C [Compound 147, N-(5-(tert-butyl)-1-ethyl-1H-pyrazol-3-yl)-2-(2-fluoro-4-((6-(methylsulfonyl)quinolin-4-yl)oxy)phenyl)acetamide]
< 2.5 nM | Cc1c(Oc2ccnc3ccc(C(=O)N4CC5(COC5)C4)cc23)ccc(CC(=O)Nc2cnn(C(C)(C)C)c2)c1F [Compound 347, 2-(4-((6-(2-oxa-6-azaspiro[3.3]heptane-6-carbonyl)quinolin-4-yl)oxy)-2-fluoro-3-methyl-phenyl)-N-(1-(tert-butyl)-1H-pyrazol-4-yl)acetamide]

Same assay, conditions: RIPK2 IC50 (nM), RIPK2 5 nM, ATP 150 μM, MBP substrate

IC50 | SMILES
< 2.5 nM | COCCN(C)C(=O)c1ccc2nccc(Oc3cc(F)c(CC(=O)Nc4cnn(C(C)(C)C)c4)cc3C)c2c1 [Compound 368, 4-(4-(2-((1-(tert-butyl)-1H-pyrazol-4-yl)amino)-2-oxoethyl)-5-fluoro-2-methyl-phenoxy)-N-(2-methoxy-ethyl)-N-methyl-quinoline-6-carboxamide]
